Assay results as given in patent US11236102B2, “Oxabicycloheptane prodrugs” (Lixte Biotechnology, Inc., priority 2015, dated 2022).
Several values for one entry are separate records, joined by “and”; a condition that tells them apart may be missing. Equal values may be shown once. Marks after values point to notes of the source that are not given here.

Assay: Pharmacokinetic study of 153 (iv, po) in SD rats: 153 and endothal in plasma, liver, brain
Assay type: in vivo, SD rats
Procedure: The blood, liver and brain tissue samples were collected at predetermined times from rats. […] Compound were diluted shortly before use in 4% sodium bicarbonate for sterile injection (this is the standard pediatric solution of NaHCO3 with a pH of about 8.5).
Compound 153 was freshly prepared by diluting the drugs shortly before use in 4% sodium bicarbonate for sterile injection (this is the standard pediatric solution of NaHCO3 with a pH of about 8.5). The final concentrations of 153 solutions were 0.25 mg/mL. The 153 solutions were administered via iv or po route at dose volume of 5 ml/kg according to the latest body weight. Compound 157 was freshly prepared by diluting the drugs shortly before use in 4% sodium bicarbonate for sterile injection (this is the standard pediatric solution of NaHCO3 with a pH of about 8.5). The final concentrations of […] solutions were 0.3 mg/mL. The 157 solutions were administered via iv or po route at dose volume of 5 ml/kg according to the latest body weight.
Twelve (12) female SD rats per group were dosed by iv with 153 or 157. The rats were fasted overnight prior to dosing, with free access to water. Foods were withheld for 2 hours post-dose. Blood, liver and brain tissue samples in two animals each group were collected at each time point, within 10% of the scheduled time for each time point. Two extra animals were used for analytic method development.
Blood (>0.3 mL) were collected via aorta abdominalis in anaesthetic animals into tubes containing heparin at 15 min, 1, 2, 6, 10 and 24 hours after iv administration. Liver and brain tissues were collected immediately after animal death. The liver and brain tissues were excised and rinsed with cold saline to avoid blood residual. Upon collection, each sample was placed on ice and the blood samples were subsequently centrifuged (4° C., 11000 rpm, 5 min) to separate plasma.
The obtained plasma, liver and brain tissue samples were stored at −70° C. until LC-MS/MS analysis.
Two (2) female SD rats per group were dosed by po with 153 or 157. The rats were fasted overnight prior to dosing, with free access to water. Foods were withheld for 2 hours post-dose. Blood samples (>0.3 mL) were collected via aorta abdominalis in anaesthetic animals into tubes containing heparin at 30 min, 1, 2, 6, 10 and 24 hours after po administration.
To each sample, 20 μL IS-D (for blank samples, 20 μL acetonitrile:water (1:1) was added) and 300 μl acetonitrile was added. The sample mixture was vortexed for approximately 3 min. After centrifugation at 10000 rpm for 5 min at 4° C., 100 μL of the upper layer was transferred to a new tube and added 200 μL 0.4% formic acid in water (pH 6.0). The mixture was vortexed for approximately 3 min before injected onto the LC/MS/MS system for analysis.
On the day of the assay, the frozen liver and brain samples were thawed unassisted at room temperature. An about 200 mg weighed sample of each thawed tissue was placed into a plastic tube with water (0.6 mL) to facilitate homogenization. Tissue processing was conducted using a homogenizer for approximately 1 min, 200 μl homogenate was transferred into a fresh Eppendorf tube. To each tube, 50 μL IS-D was added and mixed. Then 600 ul acetonitrile was added and the sample mixture was vortexed for approximately 3 min. After centrifugation at 10000 rpm for 5 min at 4° C., 400 μL of the upper layer was transferred to a new tube and evaporate the supernatant to dryness at 35° C. Reconstitute the residue with 200 μL of 0.4% formic acid in water (pH6.0), and vortex for 3 min, submit for LC-MS/MS analysis.
Frozen unknown plasma samples were completely thawed at room temperature and vortexed thoroughly. With a pipette, 50 μL of plasma was transferred into a 2.0 mL Eppendorf tube. 50 μL of 0.1N HCl and 800 μL ethyl acetate were added into each sample. The sample mixture was vortexed for approximately 3 min.

[1] = iv 1.25 mg/kg, 0.25 hr, individual rats, 1.25 mg/kg
[2] = iv 1.25 mg/kg, 1 hr, individual rats, 1.25 mg/kg
[3] = iv 1.25 mg/kg, 2 hr, individual rats, 1.25 mg/kg
[4] = plasma, 153 1.25 mg/kg PO, individual rats, 1.25 mg/kg

SMILES: CCCOC(=O)C1C2CCC(O2)C1C(=O)N1CCN(C)CC1 (stereo not shown) [Compound 153]
- 153 plasma concentration (PO 1.25 mg/kg, 0.25 hr, individual rats, 1.25 mg/kg): 652 ng/mL
- 153 plasma concentration (PO 1.25 mg/kg, 1 hr, individual rats, 1.25 mg/kg): 121 ng/mL
- MRT (female, SD, rat, in vivo, iv, 1.25 mg/kg, MRT (0 t)): 40 min
- MRT (0 t) (female, SD, rat, in vivo, po, 1.25 mg/kg): 1.01 h
- MRT (female, SD, rat, in vivo, po, 1.25 mg/kg, MRT (0 t)): 59.2 min
- MRT (female, SD, rat, in vivo, plasma, 153 1.25 mg/kg PO, individual rats, read-out: MRT (0 t)): 62.4 min
- Cmax (female, Sprague-Dawley, rat, in vivo, iv, 1.25 mg/kg): 762 ng/g
- concentration at 2 hr (female, Sprague-Dawley, rat, in vivo, po, 1.25 mg/kg): 42 ng/mL
- concentration at 0.25 hr (female, Sprague-Dawley, rat, in vivo, po, 1.25 mg/kg, PO 1.25 mg/kg, 0.25 hr, individual rats): 872 ng/mL
- concentration at 0.25 hr (female, Sprague-Dawley, rat, in vivo, po, 1.25 mg/kg, PO 1.25 mg/kg, 0.25 hr, mean): 762 ng/mL
- concentration at 1 hr (female, Sprague-Dawley, rat, in vivo, po, 1.25 mg/kg, PO 1.25 mg/kg, 1 hr, individual rats): 131 ng/mL
- concentration at 1 hr (female, Sprague-Dawley, rat, in vivo, po, 1.25 mg/kg, PO 1.25 mg/kg, 1 hr, mean): 126 ng/mL
- concentration at 2 hr (female, Sprague-Dawley, rat, in vivo, po, 1.25 mg/kg, PO 1.25 mg/kg, 2 hr, individual rats, read-out: 153 plasma concentration): 41.2 ng/mL
- concentration at 2 hr (female, Sprague-Dawley, rat, in vivo, po, 1.25 mg/kg, PO 1.25 mg/kg, 2 hr, mean, read-out: 153 plasma concentration): 41.6 ng/mL
- 153 brain concentration [1]: 45 ng/g and 40.3 ng/g
- 153 liver concentration [1]: 872 ng/g and 652 ng/g
- 153 plasma concentration [1]: 563 ng/mL and 550 ng/mL
- 153 brain concentration (iv 1.25 mg/kg, 0.25 hr, mean): 42.7 ng/g
- 153 liver concentration (iv 1.25 mg/kg, 0.25 hr, mean): 762 ng/g
- 153 plasma concentration (iv 1.25 mg/kg, 0.25 hr, mean): 557 ng/mL
- 153 brain concentration [2]: 13.9 ng/g and 14.3 ng/g
- 153 liver concentration [2]: 131 ng/g and 121 ng/g
- 153 plasma concentration [2]: 58 ng/mL and 51.4 ng/mL
- 153 brain concentration (iv 1.25 mg/kg, 1 hr, mean): 14.1 ng/g
- 153 liver concentration (iv 1.25 mg/kg, 1 hr, mean): 126 ng/g
- 153 plasma concentration (iv 1.25 mg/kg, 1 hr, mean): 54.7 ng/mL
- 153 brain concentration [3]: 4.05 ng/g and 4.75 ng/g
- 153 liver concentration [3]: 42 ng/g and 41.2 ng/g
- 153 plasma concentration [3]: 14.8 ng/mL and 13 ng/mL
- 153 brain concentration (iv 1.25 mg/kg, 2 hr, mean): 4.4 ng/g
- 153 liver concentration (iv 1.25 mg/kg, 2 hr, mean): 41.6 ng/g
- 153 plasma concentration (iv 1.25 mg/kg, 2 hr, mean): 13.9 ng/mL
- 153 plasma concentration (iv 1.25 mg/kg, 6 hr, individual rats, 1.25 mg/kg): 1.04 ng/mL and 1.02 ng/mL
- 153 plasma concentration (iv 1.25 mg/kg, 6 hr, mean): 1.03 ng/mL
- 153 plasma concentration (iv 1.25 mg/kg, 10 hr, individual rat, abnormal, not included in the calculation): 9.42* ng/mL
- T1/2 in brain (iv administration of 153): 35.8 min
- T1/2 in liver (iv administration of 153): 37.6 min
- Cmax (plasma, 153 1.25 mg/kg IV, individual rats, 1.25 mg/kg): 563 ng/mL
- AUC [4]: 163 ng·h/mL
- AUC0-∞ [4]: 163 ng·h/mL
- AUClast in brain (rat, in vivo, iv): 39.4 ng·h/g
- AUClast in liver (rat, in vivo, iv): 500 ng·h/g
- oral availability (rat, in vivo, po, 1.25 mg/kg): orally available
